The test system of the assay is NF-AT. The assay is described as follows: NF-AT Inhibition Assay Directed β-Galactosidase Expression in FGL-5 cells. The assay is classed as cell-based. Particulars: 50% inhibition of NF-AT directed β-galactosidase activity in FGL-5 cells stimulated with phorbol dibutyrate and ionomycin; TABLE 3. Summed up:
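FGL-5 Jurkat cells (3 million cells/ml) carry NF-AT-site-driven lacZ. They were stimulated with phorbol dibutyrate plus ionomycin and incubated with compound 16-18 h at 37 °C, in duplicate wells with matched ethanol or DMSO vehicle controls. β-Galactosidase was read as fluorescence from 4-methylumbelliferyl-β-D-galactoside cleavage, giving percent inhibition.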

This passage reports IC50 results from patent publication US5686424A, “2-oxoethyl derivatives as immunosuppressants” (Miles Inc., priority 1995, dated 1997).

In the case of `CC[C@H](C)[C@H](NC(=O)[C@@H]1CCCN1CC(=O)NC12CC3CC(CC(C3)C1)C2)C(=O)NCc1ccccc1` [Example 39, L-Isoleucine, N-[1-(2-Aminoadamant-1-yl-2-oxoethyl)-L-Prolyl] Benzylamide], half-maximal inhibition (IC50) required 41 µM.
Under `CC[C@H](C)[C@H](NC(=O)[C@@H]1CCCN1CC(=O)C1CC2CC(C1C)C2(C)C)C(=O)NCc1ccccc1` (stereo partly drawn) [Example 41, L-Isoleucine, N-[1-[2-(2,6,6-Trimethyl-Bicyclo[3.1.1]hept-3-yl)-2-Oxoethyl]-L-Prolyl] Benzylamide] stands 13 µM; under `O=C(NCc1ccccc1)[C@H](COCc1ccccc1)NC(=O)[C@@H]1CCCN1CC(=O)C12CC3CC(CC(C3)C1)C2` [Example 62, L-Serine-(O-Benzyl Ether), N-[1-(2-Adamantan-1-yl-2-Oxoethyl)-L-Prolyl] Benzylamide], 13 µM.
With `O=C(CC(NC(=O)[C@@H]1CCCN1CC(=O)C12CC3CC(CC(C3)C1)C2)c1ccccc1)NCc1ccccc1` (stereo partly drawn) [Example 63, L-β-Phenylalanine, N-[1-(2-Adamantan-1-yl-2-Oxoethyl)-L-Prolyl] Benzylamide], half-maximal inhibition (IC50) was put at 20 µM.
As to `CC[C@H](C)[C@H](NC(=O)[C@@H]1CCCN1CC(=O)C12CC3CC(CC(C3)C1)C2)C(=O)N[C@H](C)c1ccccc1` [Example 66, L-Isoleucine, N-[1-(2-Adamantan-1-yl-2-Oxoethyl)-L-Prolyl] alpha-(R)-methylbenzylamide], half-maximal inhibition (IC50) required 57 µM.
In turn, `CC[C@H](C)[C@H](NC(=O)[C@@H]1CCCN1CC(=O)NC1C2CC3CC(C2)CC1C3)C(=O)NCc1ccccc1` (stereo partly drawn) [Example 90, L-Isoleucine, N-[1-(Adamantan-2-ylcarbamoylmethyl)-L-Prolyl] Benzylamide] came in with an IC50 of more than 100 µM.
Under `CC[C@H](C)[C@H](NC(=O)[C@@H]1CCCN1CC(=O)O[C@H](c1ccccc1)C(C)C)C(=O)NCc1ccccc1` [Example 92, L-Isoleucine, N-[1-(2-(2-Methyl-1-(S)-Phenyl-1-Propoxy)-2-Oxoethyl)-L-Prolyl] Benzylamide] stands 44 µM; under `CC[C@H](C)[C@H](NC(=O)[C@@H]1CCCN1CC(=O)O[C@@H](c1ccccc1)C(C)C)C(=O)NCc1ccccc1` [Example 93, L-Isoleucine, N-[1-(2-(2-Methyl-1-(R)-Phenyl-1-Propoxy)-2-Oxoethyl)-L-Prolyl] Benzylamide], 19 µM.
